From patent US8592448B2 (OSI Pharmaceuticals, LLC, priority 2008, dated 2013) come the findings set out here.

The test system of assay [1] is MKN45 cells. The assay is described as follows: MKN45 cell proliferation assay (CellTiter-Glo). The assay is classed as cell-based. The following applies: MKN45 cell line, 3 days incubation, at least duplicate experiments, read-out: Prolif. IC50. On the procedure: The effect of inhibitors on the proliferation of MKN45 cells was determined using the following protocol. MKN45 cells were plated in Corning 3917 96-well white tissue culture treated plates in growth medium (RPMI, 10% FCS) at a density of 5000 cells/well in a total volume of 135 μL and incubated at 37° C., 5% CO2, 95% humidity overnight. The following day, one-tenth volume of a 10× concentration of compounds was added to the wells in an 8-point dilution series. The dilution series was composed of an initial 1:5 dilution of a 10 mM stock of compound in DMSO, followed by serial 1:4 dilutions in DMSO, then a 1:20 dilution in growth medium prior to the 1:10 dilution into the cell plate. Final DMSO concentration on the cells was 0.1%, there were control wells treated with both 0.1% DMSO and no DMSO. The typical dilution range is 10 μM to 0.6 nM. Once the compound was added to the cells, plates were incubated for 3 days at 37° C., 5% CO2 at 95% humidity. On the third day, after allowing all cells and reagents to come to room temperature, 25 μL of CellTiter-Glo reagent (Promega # G7573) was added to the wells. Plates were shaken on a platform for 10 minutes prior to reading luminescence for 0.1 seconds. The signal of the control wells was taken as 100% growth and growth inhibition was expressed as percent of control. IC50 values were determined from the percent of control data using a standard four-parameter model.
The IC50 values of exemplary compounds of the present invention determined in a cell proliferation assay using the MKN45 cell line according to the procedures described herein in at least duplicate experiments are abbreviated as follows and are shown in Table 2: A, IC50≦0.1 μM; B, 0.1 μM<IC50≦1 μM; C, 1 μM<IC50≦10 μM; D, IC50>10 μM; ND, not determined. The Example # of Table 2 corresponds to the compound example number as illustrated in the Examples section.
A general note: ATP-based viability assays read luminescence as a measure of living cells.

Assay [2] addresses T1, phosphorylated c-MET (Homo sapiens, UniProt P08581).
T1 construct: endogenous in cells; host or cells: MKN45
As to the kind of experiment: c-MET cell mechanistic assay (phosphorylated c-MET in MKN45 cells). The assay is classed as cell-based. To be noted: MKN45 cell line, four hours incubation, phosphorylated c-MET levels, at least duplicate experiments; read-out: Met mech IC50. In outline: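 MKN45 cells were treated 4 h at 37 °C with a 6-point dilution series (typically 10 μM to 3 nM; final 0.5% DMSO). Phospho-c-MET (pY1230/1234/1235) in lysates was measured by capture ELISA with HRP read-out at 450 nm. IC50 came from a four-parameter fit of percent of DMSO control.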

Where two headings read alike, the source gives them in different places.

T1 sequence (P08581 25-1390): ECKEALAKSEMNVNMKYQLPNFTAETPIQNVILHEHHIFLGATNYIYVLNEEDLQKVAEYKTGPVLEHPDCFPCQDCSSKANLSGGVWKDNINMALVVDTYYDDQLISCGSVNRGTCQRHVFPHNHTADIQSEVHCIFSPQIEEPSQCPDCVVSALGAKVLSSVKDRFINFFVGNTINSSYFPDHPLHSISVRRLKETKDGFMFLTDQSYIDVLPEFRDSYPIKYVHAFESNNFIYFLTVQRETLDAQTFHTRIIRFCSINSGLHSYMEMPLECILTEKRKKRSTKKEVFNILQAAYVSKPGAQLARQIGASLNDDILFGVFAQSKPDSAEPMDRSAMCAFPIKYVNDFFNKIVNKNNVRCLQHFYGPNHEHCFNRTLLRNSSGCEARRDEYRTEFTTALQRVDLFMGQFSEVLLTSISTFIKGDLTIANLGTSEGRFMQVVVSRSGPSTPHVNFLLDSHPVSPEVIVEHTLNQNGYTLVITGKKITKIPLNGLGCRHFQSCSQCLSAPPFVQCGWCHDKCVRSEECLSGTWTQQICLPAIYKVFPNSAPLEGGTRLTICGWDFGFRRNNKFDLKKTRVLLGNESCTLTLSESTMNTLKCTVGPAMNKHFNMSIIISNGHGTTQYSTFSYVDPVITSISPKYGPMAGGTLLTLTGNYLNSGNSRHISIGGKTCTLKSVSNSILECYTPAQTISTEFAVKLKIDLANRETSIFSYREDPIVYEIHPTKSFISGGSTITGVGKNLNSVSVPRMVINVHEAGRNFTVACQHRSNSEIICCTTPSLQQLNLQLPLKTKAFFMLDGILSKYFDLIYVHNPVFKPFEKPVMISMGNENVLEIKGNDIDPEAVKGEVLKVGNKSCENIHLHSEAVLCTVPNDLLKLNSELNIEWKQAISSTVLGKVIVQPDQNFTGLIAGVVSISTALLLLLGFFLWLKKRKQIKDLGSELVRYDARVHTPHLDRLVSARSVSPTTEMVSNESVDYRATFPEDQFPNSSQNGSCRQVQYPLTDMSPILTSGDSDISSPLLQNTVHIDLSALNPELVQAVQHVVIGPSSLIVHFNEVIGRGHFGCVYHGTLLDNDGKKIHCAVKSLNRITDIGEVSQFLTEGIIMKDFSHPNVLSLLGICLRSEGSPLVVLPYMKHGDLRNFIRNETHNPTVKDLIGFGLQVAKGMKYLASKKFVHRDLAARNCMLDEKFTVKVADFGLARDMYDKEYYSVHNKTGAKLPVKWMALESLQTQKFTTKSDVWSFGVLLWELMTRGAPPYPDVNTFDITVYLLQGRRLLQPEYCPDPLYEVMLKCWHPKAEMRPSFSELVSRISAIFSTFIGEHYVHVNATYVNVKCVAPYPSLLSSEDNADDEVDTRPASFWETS

Broadly, the IC50 is the concentration that gives 50% inhibition. In the case of `C[C@H](c1c(Cl)ccc(F)c1Cl)c1c[nH]c2ncc(-c3cnn(CC(=O)N4CCN(C)CC4)c3)cc12` [Example 79, 2-(4-{3-[(S)-1-(2,6-Dichloro-3-fluorophenyl)ethyl]-1H-pyrrolo[2,3-b]-pyridin-5-yl}-pyrazol-1-yl)-1-(4-methylpiperazin-1-yl)ethanone], the IC50 in assay [1] (Homo sapiens, MKN-45, 72 h) is at most 100 nM; in assay [2], at most 100 nM.

Turning to `CC(c1c(Cl)ccc(F)c1Cl)c1c[nH]c2ncc(-c3cn[nH]c3)cc12` (stereo not drawn) [Example 26, 3-[1-(2,6-Dichloro-3-fluorophenyl)-ethyl]-5-(1H-pyrazol-4-yl)-1H-pyrrolo[2,3-b]pyridine], the IC50 in assay [1] (Homo sapiens, MKN-45, 72 h) is 100 to 1000 nM; in assay [2] it was 100 to 1000 nM.

In the case of `CNC(=O)Cn1cc(-c2cnc3[nH]cc([C@H](C)c4c(Cl)ccc(F)c4Cl)c3c2)cn1` [Example 76, 2-(4-{3-[(S)-1-(2,6-Dichloro-3-fluorophenyl)ethyl]-1H-pyrrolo[2,3-b]-pyridin-5-yl}-pyrazol-1-yl)-N-methylacetamide], the IC50 in assay [1] (Homo sapiens, MKN-45, 72 h) was at most 100 nM; in assay [2] it was at most 100 nM.

For the molecule `CC(c1c(Cl)ccc(F)c1Cl)c1c[nH]c2ncc(C3=CCN(S(N)(=O)=O)CC3)cc12` (stereo not drawn) [Example 46, 4-{3-[1-(2,6-Dichloro-3-fluorophenyl)ethyl]-1H-pyrrolo[2,3-b]pyridin-5-yl}-3,6-dihydro-2H-pyridine-1-sulfonic acid amide], the IC50 in assay [1] (Homo sapiens, MKN-45, 72 h) lay within 100 to 1000 nM; in assay [2] it was 100 to 1000 nM.

On to `CC(c1c(Cl)ccc(F)c1Cl)c1c[nH]c2ncc(-c3ccc(C(=O)NCCO)cc3)cc12` (stereo not drawn) [Example 24, 4-{3-[1-(2,6-Dichloro-3-fluorophenyl)ethyl]-1H-pyrrolo[2,3-b]pyridin-5-yl}-N-(2-hydroxyethyl)benzamide], for which the IC50 in assay [1] (Homo sapiens, MKN-45, 72 h) is 100 to 1000 nM; in assay [2] it was 100 to 1000 nM.

As for `CC(c1c(Cl)ccc(F)c1Cl)c1c[nH]c2ncc(-c3cnn(C(C)(C)C(=O)O)c3)cc12` (stereo not drawn) [Example 61, 2-(4-{3-[1-(2,6-Dichloro-3-fluorophenyl)ethyl]-1H-pyrrolo[2,3-b]pyridin-5-yl}-pyrazol-1-yl)-2-methylpropionic acid], the IC50 lay within 1000 to 10000 nM in assay [1] (Homo sapiens, MKN-45, 72 h) and 1000 to 10000 nM in assay [2].

For `CC(c1c(Cl)ccc(F)c1Cl)c1c[nH]c2ncc(-c3cnn(C4CNC4)c3)cc12` (stereo not drawn) [Example 53, 5-(1-Azetidin-3-yl-1H-pyrazol-4-yl)-3-[1-(2,6-dichloro-3-fluoro-phenyl)ethyl]-1H-pyrrolo[2,3-b]pyridine], the IC50 in assay [1] (Homo sapiens, MKN-45, 72 h) is 100 to 1000 nM; in assay [2] it was at most 100 nM.

In the case of `CC(=O)N1CC(n2cc(-c3cnc4[nH]cc(C(C)c5c(Cl)ccc(F)c5Cl)c4c3)cn2)C1` (stereo not drawn) [Example 58, 1-[3-(4-{3-[1-(2,6-Dichloro-3-fluorophenyl)-ethyl]-1H-pyrrolo[2,3-b]pyridin-5-yl}-pyrazol-1-yl)-azetidin-1-yl]-ethanone], the IC50 is 100 to 1000 nM in assay [1] (Homo sapiens, MKN-45, 72 h) and at most 100 nM in assay [2].

Turning to `CC(c1c(Cl)ccc(F)c1Cl)c1c[nH]c2ncc(-c3ccc(N)cc3)cc12` (stereo not drawn) [Example 18, 4-{3-[1-(2,6-Dichloro-3-fluorophenyl)ethyl]-1H-pyrrolo[2,3-b]pyridin-5-yl}phenylamine], the IC50 was 100 to 1000 nM in assay [1] (Homo sapiens, MKN-45, 72 h) and 100 to 1000 nM in assay [2].

`C[C@H](c1c(Cl)ccc(F)c1Cl)c1c[nH]c2ncc(-c3ccc(C(=O)N4CCNCC4)cc3)cc12` [Example 69, (4-{3-[(S)-1-(2,6-Dichloro-3-fluorophenyl)ethyl]-1H-pyrrolo[2,3-b]pyridin-5-yl}phenyl)piperazin-1-ylmethanone]: the IC50 in assay [1] (Homo sapiens, MKN-45, 72 h) is 100 to 1000 nM; in assay [2], at most 100 nM.

`CC(c1c(Cl)ccc(F)c1Cl)c1c[nH]c2ncc(-c3ccc(C(=O)N4CCOCC4)cc3)cc12` (stereo not drawn) [Example 13, (4-{3-[1-(2,6-Dichloro-3-fluorophenyl)ethyl]-1H-pyrrolo[2,3-b]pyridin-5-yl}phenyl)morpholin-4-ylmethanone]: the IC50 in assay [1] (Homo sapiens, MKN-45, 72 h) lay within 100 to 1000 nM; in assay [2], 100 to 1000 nM.

In the case of `CC(c1c(Cl)ccc(F)c1Cl)c1c[nH]c2ncc(C3=CCN(C(N)=O)CC3)cc12` (stereo not drawn) [Example 33, 4-{3-[1-(2,6-Dichloro-3-fluorophenyl)ethyl]-1H-pyrrolo[2,3-b]pyridin-5-yl}-3,6-dihydro-2H-pyridine-1-carboxamide], the IC50 in assay [1] (Homo sapiens, MKN-45, 72 h) was 100 to 1000 nM; in assay [2], at most 100 nM.

With “2-(4-{3-[(S)-1-(2,6-Dichloro-3-fluorophenyl)ethyl]-1H-pyrrolo[2,3-b]-pyridin-5-yl}-pyrazol-1-yl)-acetamide [Example 75]”, the IC50 is 100 to 1000 nM in assay [1] and at most 100 nM in assay [2].

Consider `CC(c1c(Cl)ccc(F)c1Cl)c1c[nH]c2ncc(C3=CCN(C(=O)C(C)(C)N)CC3)cc12` (stereo not drawn) [Example 45, 2-Amino-1-(4-{3-[1-(2,6-dichloro-3-fluorophenyl)ethyl]-1H-pyrrolo[2,3-b]pyridin-5-yl}-3,6-dihydro-2H-pyridin-1-yl)-2-methylpropan-1-one], for which the IC50 in assay [1] (Homo sapiens, MKN-45, 72 h) was at most 100 nM; in assay [2] it was at most 100 nM.

`CC(c1c(Cl)ccc(F)c1Cl)c1c[nH]c2ncc(-c3cnn(C4CCC(=O)CC4)c3)cc12` (stereo not drawn) [Example 89, 4-(4-{3-[1-(2,6-Dichloro-3-fluorophenyl)ethyl]-1H-pyrrolo[2,3-b]pyridin-5-yl}-pyrazol-1-yl)cyclohexanone]: the IC50 in assay [1] (Homo sapiens, MKN-45, 72 h) is at most 100 nM; in assay [2], at most 100 nM.

Turning to `CC(c1c(Cl)ccc(F)c1Cl)c1c[nH]c2ncc(C3=CCN(C(=O)C(C)(C)O)CC3)cc12` (stereo not drawn) [Example 42, 1-(4-{3-[1-(2,6-Dichloro-3-fluorophenyl)ethyl]-1H-pyrrolo[2,3-b]pyridin-5-yl}-3,6-dihydro-2H-pyridin-1-yl)-2-hydroxy-2-methylpropan-1-one], the IC50 was in the range of 100 to 1000 nM in assay [1] (Homo sapiens, MKN-45, 72 h) and 100 to 1000 nM in assay [2].

As for `CC(c1c(Cl)ccc(F)c1Cl)c1c[nH]c2ncc(C3=CCNCC3)cc12` (stereo not drawn) [Example 32, 3-[1-(2,6-Dichloro-3-fluorophenyl)-ethyl]-5-(1,2,3,6-tetrahydropyridin-4-yl)-1H-pyrrolo[2,3-b]pyridine], the IC50 in assay [1] (Homo sapiens, MKN-45, 72 h) lay within 100 to 1000 nM; in assay [2], 100 to 1000 nM.

In the case of `C[C@H](c1c(Cl)ccc(F)c1Cl)c1c[nH]c2ncc(-c3cnn(C(C)(C)CO)c3)cc12` [Example 85, 2-(4-{3-[(S)-1-(2,6-Dichloro-3-fluorophenyl)ethyl]-1H-pyrrolo[2,3-b]-pyridin-5-yl}-pyrazol-1-yl)-2-methylpropan-1-ol], the IC50 in assay [1] (Homo sapiens, MKN-45, 72 h) was 100 to 1000 nM; in assay [2], at most 100 nM.

Take `CC(c1c(Cl)ccc(F)c1Cl)c1c[nH]c2ncc(-c3cnn(C4CCN(S(C)(=O)=O)CC4)c3)cc12` (stereo not drawn) [Example 50, 3-[1-(2,6-Dichloro-3-fluorophenyl)-ethyl]-5-[1-(1-methanesulfonyl-piperidin-4-yl)-1H-pyrazol-4-yl]-1H-pyrrolo[2,3-b]pyridine]: the IC50 in assay [1] (Homo sapiens, MKN-45, 72 h) was 100 to 1000 nM; in assay [2], at most 100 nM.

On to `CNC(=O)c1ccc(-c2cnc3[nH]cc(C(C)c4c(Cl)ccc(F)c4Cl)c3c2)cc1` (stereo not drawn) [Example 5, 4-{3-[1-(2,6-Dichloro-3-fluorophenyl)ethyl]-1H-pyrrolo[2,3-b]pyridin-5-yl}-N-methylbenzamide], for which the IC50 in assay [1] (Homo sapiens, MKN-45, 72 h) fell in the range of 100 to 1000 nM; in assay [2] it was 100 to 1000 nM.

Turning to `CC(c1c(Cl)ccc(F)c1Cl)c1c[nH]c2ncc(-c3cccnc3)cc12` (stereo not drawn) [Example 88, 3-[1-(2,6-Dichloro-3-fluorophenyl)ethyl]-5-pyridin-3-yl-1H-pyrrolo[2,3-b]pyridine], the IC50 in assay [1] (Homo sapiens, MKN-45, 72 h) was 100 to 1000 nM; in assay [2], 100 to 1000 nM.

Regarding `CC(c1c(Cl)ccc(F)c1Cl)c1c[nH]c2ncc(-c3cnn(C4CN(C(N)=O)C4)c3)cc12` (stereo not drawn) [Example 56, 3-(4-{3-[1-(2,6-Dichloro-3-fluorophenyl)ethyl]-1H-pyrrolo[2,3-b]pyridin-5-yl}-pyrazol-1-yl)-azetidine-1-carboxamide], the IC50 was 100 to 1000 nM in assay [1] (Homo sapiens, MKN-45, 72 h) and at most 100 nM in assay [2].

As to `CNC(=O)C(C)(C)n1cc(-c2cnc3[nH]cc(C(C)c4c(Cl)ccc(F)c4Cl)c3c2)cn1` (stereo not drawn) [Example 62, 2-(4-{3-[1-(2,6-Dichloro-3-fluorophenyl)ethyl]-1H-pyrrolo[2,3-b]pyridin-5-yl}-pyrazol-1-yl)-N-methylisobutyramide], the IC50 in assay [1] (Homo sapiens, MKN-45, 72 h) is 100 to 1000 nM; in assay [2], at most 100 nM.

`CC(c1c(Cl)ccc(F)c1Cl)c1c[nH]c2ncc(-c3cnn(C4CCN(C=O)CC4)c3)cc12` (stereo not drawn) [Example 47, 4-(4-{3-[1-(2,6-Dichloro-3-fluorophenyl)ethyl]-1H-pyrrolo[2,3-b]pyridin-5-yl}-pyrazol-1-yl)-piperidine-1-carbaldehyde]: the IC50 is at most 100 nM in assay [1] (Homo sapiens, MKN-45, 72 h) and at most 100 nM in assay [2].
